One data set relates to MX1. Description: Antiproliferative activity against human MX1 cells incubated for 72 hrs by cell-titer Glo assay. Format: functional, cell-based. The settings on record: MX1, 72 h.
For data set [1], the target named is T1, Bromodomain-containing protein 4 (Homo sapiens, UniProt O60885). Description: Binding affinity to BRD4 in human H1299 cells stably expressing E2 and HPV16-LCR luciferase reporter incubated for 24 hrs by Bright-Glo luciferase reporter gene assay based BRD4 engagement assay. Type of data set: cell-based. On the technique in general: Reporter assays use an easily measured gene product as a stand-in for the process of interest.

The target of data set [2] is T1, Bromodomain-containing protein 4. Description: Binding affinity to His-tagged BRD4 bromodomain 1 to 2 (K57 to K550 amino acids) (unknown origin) using Alexa647-labeled BET-inhibitor as fluorescent probe by bromodomain TR-FRET binding assay. Format: single protein. In general terms: In TR-FRET formats the signal depends on donor and acceptor labels being close together.

Another data set concerns Mus musculus. Description: Unbound clearance in mouse at 10 mg/kg, po. Type of data set: ADME, organism-based. The settings on record: in vivo.
The nature of data set [3]: Intrinsic unbound clearance in human liver microsomes. Type of data set: ADME, microsome. (In general: Liver microsomes are a subcellular fraction often used to study metabolism.)
Data set [4] can be described thus: Permeability of the compound by PAMPA method. Format: ADME. The settings on record: read-out: permeability.
Data set [5] is described as follows: Intrinsic unbound clearance in mouse liver microsomes. Format: ADME, microsome.
The nature of data set [6]: Oral bioavailability in mouse at 10 mg/kg. Format: ADME, organism-based. The settings on record: in vivo.
Data set [7] can be described thus: AUC in mouse at 10 mg/kg, po. Format: ADME, organism-based. The following applies: in vivo.

The structures appear in SMILES notation.

As a reminder, the EC50 is the concentration at which the effect is half-maximal. By IC50 is commonly meant the point on the concentration scale where inhibition reaches its midpoint. As usually defined, the Ki is the equilibrium dissociation constant of an inhibitor or competing ligand from its target. Low readings indicate tighter binding, high ones weaker binding. `CCS(=O)(=O)Nc1ccc2c(c1)-c1c[nH]c(=O)c3c1c(cn3C)CN2c1ccccn1` registered a concentration for a half-maximal effect (EC50) with MX1 of 4.9 nM. For the same compound, the IC50 in data set [1] stood at 18 nM. Besides, in [2], the Ki came to 2.7 nM.
In the data set on MX1, `CCS(=O)(=O)Nc1ccc2c(c1)-c1c[nH]c(=O)c3c1c(cn3C)CN2c1ccc(F)cc1` showed an EC50 of 5.6 nM. The same compound displayed a 50% inhibitory concentration (IC50) in data set [1] of 4.3 nM. Also, in data set [2], the Ki was 4.8 nM.
In the same order, the values of `Cn1cc2c3c(c[nH]c(=O)c31)-c1cc(CS(C)(=O)=O)ccc1N(C(=O)C1CC1)C2` are 16 nM, 31 nM and 7.7 nM.
In the same order, the values of `Cn1cc(-c2cc(S(C)(=O)=O)ccc2NCC2CC2)c2cc[nH]c(=O)c21` are 140 nM, 150 nM and 80 nM.
Regarding `Cn1cc2c3c(c[nH]c3c1=O)CN(CC1CC1)c1ccccc1-2`, it took 7.3 nM to reach a half-maximal effect with MX1 (EC50). Moreover, in data set [1], the 50% inhibitory concentration (IC50) was 23 nM. Besides, the inhibition constant (Ki) in data set [2] was determined as 16 nM.
The bioavailability is dose-corrected exposure relative to a reference, in per cent. A higher bioavailability goes with good availability. As a reminder, the AUC is concentration integrated over time. Read a low AUC as less exposure. Turning to `Cn1cc2c3c(c[nH]c3c1=O)CN(c1ccc(F)cc1)c1ccc(CS(C)(=O)=O)cc1-2`, the figures for the CL free (with Mus musculus; in data set [3]; in data set [5]) were 310 L/h/kg, less than 2.5 L/h/kg and 84 L/h/kg, respectively. The compound further gave a concentration giving a half-maximal response (EC50) in the data set with MX1 of 0.72 nM. For the same compound, the Papp in [4] came to 6.6 ×10⁻⁶ cm/s. The bioavailability in data set [6] stood at 23%. Besides, in [1], the IC50 was 1.5 nM. The compound also displayed an exposure (AUC) in data set [7] of 0.67 µM·h. The Ki in [2] was 0.87 nM.
On to `Cn1cc(-c2cc(CS(C)(=O)=O)ccc2NCC2CC2)c2cc[nH]c(=O)c21`, for which, in the data set with MX1, the EC50 amounted to 140 nM. In addition, the IC50 in data set [1] was 200 nM. In addition, the affinity in [2], expressed as Ki, was 220 nM.
Compound `Cn1cc2c3c(c[nH]c3c1=O)CN(CC1CC1)c1ccc(S(C)(=O)=O)cc1-2` gave an EC50 with MX1 of 15 nM. For the same compound, in data set [1], the IC50 worked out at 28 nM. The compound also registered a Ki in data set [2] of 26 nM.
In the same order, the values of `Cn1cc2c3c(c[nH]c3c1=O)CN(C(=O)C1CC1)c1ccc(CS(C)(=O)=O)cc1-2` are 7.8 nM, 21 nM and 7.1 nM.
In the same order, the values of `COC(=O)N1Cc2cn(C)c3c(=O)[nH]cc(c23)-c2cc(CS(C)(=O)=O)ccc21` are 78 nM, 48 nM and 17 nM.
With `Cn1cc2c3c(c[nH]c3c1=O)CN(CC1CC1)c1ccc(CS(C)(=O)=O)cc1-2`, the CL free in the data set on Mus musculus came to 27 L/h/kg; in data set [3], 11 L/h/kg; in data set [5], 18 L/h/kg. The same compound yielded an EC50 with MX1 of 2 nM. The Papp in data set [4] amounted to 4.3 ×10⁻⁶ cm/s. For the same compound, the bioavailability in data set [6] was found to be 8.2%. Besides, the IC50 in data set [1] was 4.6 nM. Moreover, the AUC in [7] came to 0.16 µM·h. For the same compound, in [2], the Ki turned out to be 8.4 nM.
Turning to `Cn1cc2c3c(c[nH]c(=O)c31)CN(CC1CC1)c1ccc(CS(C)(=O)=O)cc1-2`, the figures for the CL free (in the data set on Mus musculus; in [3]; in data set [5]) were 44 L/h/kg, less than 2.7 L/h/kg and less than 8 L/h/kg, respectively. In the data set on MX1, this compound displayed an EC50 of 19 nM. Also, the Papp in data set [4] turned out to be 2.5 ×10⁻⁶ cm/s. Also, the bioavailability in data set [6] worked out at 23%. The IC50 in data set [1] turned out to be 23 nM. This compound also yielded an area under the curve (AUC) in data set [7] of 0.64 µM·h. The same compound returned a Ki in [2] of 12 nM.
As to `Cn1cc(-c2ccccc2NCC2CC2)c2cc[nH]c(=O)c21`, the half-maximal effective concentration (EC50) with MX1 is 3300 nM. In data set [1], this compound gave a concentration for half-maximal inhibition (IC50) of 5000 nM. The compound also registered a Ki in [2] of 1500 nM.
In the same order, the values of `CCS(=O)(=O)Nc1cnc2c(c1)-c1cn(C)c(=O)c3[nH]cc(c13)CN2c1ccc(F)cc1F` are 7 nM, 4.1 nM and 4.1 nM.
In the same order, the values of `Cn1cc2c3c(c[nH]c(=O)c31)CN(CC1CC1)c1ccc(S(C)(=O)=O)cc1-2` are 140 nM, 190 nM and 180 nM.
With `CCC(=O)N1Cc2c[nH]c3c(=O)n(C)cc(c23)-c2cc(CS(C)(=O)=O)ccc21`, in the data set with MX1, a half-maximal effect (EC50) was put at 4.7 nM. The IC50 in [1] turned out to be 9 nM. Affinity in data set [2] was put at a Ki of 7.3 nM.
Regarding `Cn1cc(-c2cc(S(C)(=O)=O)ccc2NCC2CC2)c2cc[nH]c2c1=O`, in the data set on MX1, the 50% effective concentration (EC50) amounted to 17 nM.
`Cn1cc2c3c(c[nH]c3c1=O)CN(C1CCC(F)(F)CC1)c1ccc(CS(C)(=O)=O)cc1-2`: the values for the CL free (in the data set on Mus musculus; in [3]; in data set [5]) were 290 L/h/kg, 4 L/h/kg and 16 L/h/kg, respectively. This compound also yielded an EC50 with MX1 of 1.4 nM. For the same compound, in data set [4], the Papp came out at 7.3 ×10⁻⁶ cm/s. In data set [6], this compound showed a bioavailability of 48%. The IC50 in data set [1] came to 3.7 nM. This compound displayed an AUC in [7] of 0.13 µM·h. Further, the Ki in data set [2] is 4.7 nM.
For `Cn1cc2c3c(c[nH]c(=O)c31)-c1cc(CS(C)(=O)=O)ccc1N(c1ccc(F)cc1F)C2`, in the data set on MX1, the EC50 stood at 4 nM. In data set [1], this compound came in with an IC50 of 6.5 nM. This compound came in with a Ki in data set [2] of 2.7 nM.
In the same order, the values of `CCS(=O)(=O)Nc1cnc2c(c1)-c1c[nH]c(=O)c3c1c(cn3C)CN2c1ccc(F)cc1F` are 18 nM, 32 nM and 4.4 nM.
Compound `Cn1cc(-c2ccccc2NCC2CC2)c2cc[nH]c2c1=O` had a concentration for a half-maximal effect (EC50) in the data set with MX1 of 1400 nM.
In data set [1], `CCS(=O)(=O)Nc1ccc(Oc2ccc(F)cc2F)c(-c2cn(C)c(=O)c3[nH]ccc23)c1` [MIVEBRESIB] gave an IC50 of 20 nM.
Consider `Cn1cc2c3c(c[nH]c(=O)c31)-c1cc(CS(C)(=O)=O)ccc1N(c1ccccn1)C2`, for which the CL free in data set [3] worked out at 3.9 L/h/kg; in [5], 8.4 L/h/kg. Further, the EC50 with MX1 turned out to be 5.5 nM. For the same compound, the Papp in data set [4] stood at 5.9 ×10⁻⁶ cm/s. The same compound yielded an IC50 in data set [1] of 2.3 nM. Also, the AUC in data set [7] stood at 1.2 µM·h. The compound further gave an inhibition constant (Ki) in data set [2] of 2.9 nM.
Compound `Cn1cc(-c2cc(CS(C)(=O)=O)ccc2NCC2CC2)c2cc[nH]c2c1=O` gave an EC50 in the data set with MX1 of 43 nM.
Turning to `Cn1cc2c3c(c[nH]c(=O)c31)CN(CC1CC1)c1ccccc1-2`, a half-maximal response with MX1 (EC50) required 57 nM. Besides, the IC50 in data set [1] was 95 nM. In data set [2], the Ki came to 43 nM.

These data come from ChEMBL document CHEMBL4190379 (Bioorg Med Chem Lett, 2018).
